Where no end group is shown, it is not given here.
Target: T1, MN (Saccharomyces cerevisiae, UniProt P39731+P47149)
T1 construct: made in house; host or cells: E. coli BL21 (DE3)
T1 sequence (P39731 1-289): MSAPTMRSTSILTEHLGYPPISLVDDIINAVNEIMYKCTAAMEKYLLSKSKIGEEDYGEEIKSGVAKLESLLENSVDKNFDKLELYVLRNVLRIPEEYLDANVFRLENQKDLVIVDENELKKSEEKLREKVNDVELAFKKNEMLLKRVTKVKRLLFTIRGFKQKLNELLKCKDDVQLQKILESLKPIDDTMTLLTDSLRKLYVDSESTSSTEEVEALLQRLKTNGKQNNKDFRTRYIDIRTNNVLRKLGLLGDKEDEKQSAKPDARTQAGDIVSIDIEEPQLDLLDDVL
T1 sequence (P47149 1-201): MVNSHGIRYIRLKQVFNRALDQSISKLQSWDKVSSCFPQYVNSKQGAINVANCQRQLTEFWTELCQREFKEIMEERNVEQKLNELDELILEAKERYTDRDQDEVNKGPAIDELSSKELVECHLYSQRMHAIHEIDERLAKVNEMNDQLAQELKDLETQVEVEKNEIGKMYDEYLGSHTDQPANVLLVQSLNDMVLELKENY
Assay: Isothermal titration calorimetry (ITC) with MN
Type: binding, budding yeast (S. cerevisiae)
Conditions: summary of FP and ITC assays
Description: Figure 5 The Mif2 N‐terminus is prevented from high‐affinity Mtw1c binding in the full‐length molecule • Co‐purification of Strep‐Mtw1c through Flag‐Mif2 after co‐expression in insect cells. Proteins were detected by Western blotting using their respective tags. • Western blotting of elution fractions from an SEC experiment of Mif2‐wt or Mif2^Ame1‐N swap in the absence (upper panel) or presence (lower panel) of Mtw1c. • ITC analysis of Mif2^1‐41 or Ame1^1‐20 binding to MN. Experiments were performed 3 or 4 times, respectively. One representative binding curve is shown, whereas the KD value represents the average of all experiments. • Cross‐link (XL) MS analysis of the Mif2wt protein in isolation or bound to Cse4n using the cross‐linker Bis[sulfosuccinimidyl] glutarate. Mif2wt alone or in combination with Cse4n was subjected to analytical size‐exclusion chromatography at 10 μM concentration. The corresponding Coomassie‐stained SDS–PAGE gels of Mif2‐wt alone or in combination with Cse4n are shown. Fractions used for cross‐linking are highlighted. […]
The binding constant of Ame1 could only be indirectly measured in the FP competition assay, as labeling of Ame1 N‐terminal peptides rendered them insoluble. We therefore directly determined binding affinities of Mif2 and Ame1 N‐terminal peptides to MN using isothermal titration calorimetry (ITC). […]

Which “dissociation constants for Mtw1 constructs” value does the source give for “MDYMKLGLKSRKTGIDVKQDIPKDEYSMENIDDFFKDDETS [Mif2^1‐41]” here?
The value was “low micromolar range”.

Reference: article PMC7360964, “Auto‐inhibition of Mif2/CENP‐C ensures centromere‐dependent kinetochore assembly in budding yeast” (The EMBO Journal, 2020)
